One assay relates to pain. As to the kind of experiment: Animal models of pain. Conditions: in vivo.
The subject of assay [1] is tail flick response. As to the kind of experiment: Tail Flick Test in mice. The assay is classed as in vivo. Conditions: subcutaneous, 3, 10, and 30 mg/kg. Here is the method: (§1) This well known test measures the effect of a test compound on the time taken for an animal to flick its tail out of a focused beam of light. In the test, a beam of light from a lamp is focused on a surface, and the lamp is then switched off. Treated and untreated (control) animals are restrained, with their tails positioned at the focal point of the beam of light from the lamp. The lamp is then switched on, and the time taken for the animal's tail to respond by moving is recorded.
(In hot-plate and tail-flick tests a longer latency is read as antinociception.)

Assay [2] addresses T1, human GluR5 (Homo sapiens, UniProt P39086). Description: Selectivity at GluR5 over other ionotropic glutamate receptors (binding and electrophysiology). Conditions: GluR5 vs other ionotropic glutamate receptors.
Target sequence in this assay (P39086 31-918): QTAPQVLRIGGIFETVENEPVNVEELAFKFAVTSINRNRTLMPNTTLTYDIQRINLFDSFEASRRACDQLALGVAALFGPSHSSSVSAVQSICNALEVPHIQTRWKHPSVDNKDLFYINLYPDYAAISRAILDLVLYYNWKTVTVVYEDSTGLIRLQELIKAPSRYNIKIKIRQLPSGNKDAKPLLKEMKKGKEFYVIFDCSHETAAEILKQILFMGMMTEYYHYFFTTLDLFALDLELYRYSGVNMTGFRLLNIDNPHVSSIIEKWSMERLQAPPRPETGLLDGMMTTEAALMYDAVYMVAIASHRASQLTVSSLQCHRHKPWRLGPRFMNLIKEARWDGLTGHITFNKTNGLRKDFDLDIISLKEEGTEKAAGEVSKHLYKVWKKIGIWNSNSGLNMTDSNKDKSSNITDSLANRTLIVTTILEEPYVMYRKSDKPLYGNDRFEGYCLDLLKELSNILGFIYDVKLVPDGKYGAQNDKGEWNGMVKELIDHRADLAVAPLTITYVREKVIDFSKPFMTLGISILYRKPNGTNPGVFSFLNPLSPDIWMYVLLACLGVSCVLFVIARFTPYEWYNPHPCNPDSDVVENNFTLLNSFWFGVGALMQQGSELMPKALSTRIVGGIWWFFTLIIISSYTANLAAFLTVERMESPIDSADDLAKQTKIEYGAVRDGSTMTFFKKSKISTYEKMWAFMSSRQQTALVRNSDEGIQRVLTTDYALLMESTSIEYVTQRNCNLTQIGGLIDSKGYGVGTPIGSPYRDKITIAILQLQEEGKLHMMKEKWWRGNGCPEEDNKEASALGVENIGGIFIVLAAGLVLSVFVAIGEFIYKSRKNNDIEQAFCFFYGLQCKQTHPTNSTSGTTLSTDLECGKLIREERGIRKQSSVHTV
Assay [3] relates to tail flick response. As to the kind of experiment: Tail Flick Test in cynomolgous primates. The class given is in vivo. To be noted: oral, 0.03, 0.1, 0.3 and 3 mg/kg. Here is the method:
as §1

Assay [4] deals with acetic acid induced writhing. As to the kind of experiment: Acetic acid induced mouse writhing test. To be noted: mice; 1, 3, 10 and 30 mg/kg; 0.5% acetic acid i.p. The assay is classed as in vivo, male CD-1 mice. As for the experimental part: 3) Acetic acid induced mouse writhing test.
This test measures the ability of a test compound to reduce the amount of writhing induced by intraperitoneal injection of acetic acid in mice.
Doses of test compound or control are administered to male CD-1 mice. Each animal is then administered 0.5% acetic acid in a volume of […] intraperitoneally. The animals are then placed in individual plexiglas observation chambers and the total number of writhes (flattening of the abdominal wall and asymmetric stretching and extending of the body and hindlimbs) recorded between 5 and 10 minutes after acetic acid administration.

In assay [5] the target is T1, human GluR5. As to the kind of experiment: Binding: displacement of 3H kainate on GluR5-expressing HEK293 cells (Table 1). Details: expressed in transfected cells; host or cells: HEK293. An excerpt:
(§2) Cell lines (HEK293 cells) stably transfected with human GluR5 receptors were employed. Displacement of 3H AMPA by increasing concentrations of test compound was used on GluR1-4-expressing cells and 3H kainate (KA) on GluR5 and expressing cells.
Target sequence in this assay (P39086 31-905 isoform P39086-2 limits assumed): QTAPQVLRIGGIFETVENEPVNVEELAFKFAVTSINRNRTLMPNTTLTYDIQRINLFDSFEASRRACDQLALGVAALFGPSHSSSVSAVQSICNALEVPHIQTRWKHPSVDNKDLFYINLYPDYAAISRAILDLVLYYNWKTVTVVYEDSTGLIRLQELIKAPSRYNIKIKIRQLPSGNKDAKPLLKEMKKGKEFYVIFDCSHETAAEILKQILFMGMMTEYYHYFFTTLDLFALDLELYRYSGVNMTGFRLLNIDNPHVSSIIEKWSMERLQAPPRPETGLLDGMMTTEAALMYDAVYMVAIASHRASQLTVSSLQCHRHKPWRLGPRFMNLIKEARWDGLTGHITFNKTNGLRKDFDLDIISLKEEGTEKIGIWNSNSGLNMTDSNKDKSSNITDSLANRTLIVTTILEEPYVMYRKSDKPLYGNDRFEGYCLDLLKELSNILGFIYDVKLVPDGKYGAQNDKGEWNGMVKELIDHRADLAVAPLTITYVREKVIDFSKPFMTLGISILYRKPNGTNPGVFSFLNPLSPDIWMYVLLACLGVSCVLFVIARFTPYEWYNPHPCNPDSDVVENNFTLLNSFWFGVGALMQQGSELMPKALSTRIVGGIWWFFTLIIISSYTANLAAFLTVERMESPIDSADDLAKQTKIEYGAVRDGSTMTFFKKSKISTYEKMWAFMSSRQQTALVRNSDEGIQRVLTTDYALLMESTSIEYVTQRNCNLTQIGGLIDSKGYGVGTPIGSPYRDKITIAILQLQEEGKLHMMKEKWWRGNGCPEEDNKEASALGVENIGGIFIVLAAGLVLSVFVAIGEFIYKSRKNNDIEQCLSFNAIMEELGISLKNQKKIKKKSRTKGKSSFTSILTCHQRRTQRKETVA

Assay [6] deals with T2, human GluR1 (Homo sapiens, UniProt P42261).
T2 construct: expressed in transfected cells; host or cells: HEK293
As to the kind of experiment: Binding: displacement of 3H AMPA on GluR1-expressing cells (Table 1). The text has this:
(§3) The selectivity of compounds acting at GluR5 receptors may be determined by measurement of activity at other AMPA and kainate receptors including receptor-ligand binding studies and whole-cell voltage clamp electro-physiological recordings of functional activity at human GluR1, GluR2, GluR3 and GluR4 receptors (Fletcher et al., 1995, Recept. Channels 3; 21-31), receptor-ligand binding studies and whole-cell voltage clamp electrophysiological recordings of functional activity at human GluR6 receptors (Hoo et al., Recept. Channels 2; 327-338) and whole-cell voltage clamp electrophysiological recordings of functional activity at AMPA receptors in acutely isolated cerebellar Purkinje neurons (Bleakman et al., 1996, Mol. Pharmacol. 49; 581-585) and other tissues expressing AMPA receptors (Fletcher and Lodge, 1996, Phannacol. Ther. 70; 65-89).
(§4) Cell lines (HEK293 cells) stably transfected with human GluR5 receptors were employed. Displacement of 3H AMPA by increasing concentrations of test compound was used on GluR1-4-expressing cells and 3H kainate (KA) on GluR5 and expressing cells. Estimated activity (Ki) in nM was as follows.
(In general: In a radioligand displacement assay an active substance lowers the binding of a labelled ligand.)

Assay [7] deals with T3, human GluR4 (Homo sapiens, UniProt P48058).
T3 construct: expressed in transfected cells; host or cells: HEK293
Description: Binding: displacement of 3H AMPA on GluR4-expressing cells (Table 1).
From the text: as §3, §4

In assay [8] the target is T3, human GluR4. Description: Patch-clamp electrophysiology, HEK293 cells stably transfected with human GluR4, vs 100 μM AMPA (Table 2). The class given is cell-based.
From the text: as §3
(§5) Functional studies were carried out on HEK293 cells stably transfected with human GluR receptors and on acutely isolated dorsal root ganglion neurons (DRG) using patch-clamp technology (Bleakman et al., 1996, Mol. Pharmacol., 49, 581-585). IC50 values (μM) for test Compound A were estimated for GluR1-4 vs 100 μM AMPA and GluR5 and GluR6 vs 100 μM KA with the following results: […]
(In patch-clamp work, channel activity is measured electrically.)

In assay [9] the target is T4, human GluR6 (Homo sapiens, UniProt Q13002).
T4 construct: expressed in transfected cells; host or cells: HEK293
Description: Patch-clamp electrophysiology, HEK293 cells stably transfected with human GluR6, vs 100 μM KA (Table 2). The class given is cell-based.
From the text: as §3, §5

In assay [10] the test system is acutely isolated dorsal root ganglion neurons (DRG). Description: Patch-clamp electrophysiology, kainate induced current in acutely isolated dorsal root ganglion neurons (Table 2). The class given is cell-based. Conditions: Rattus norvegicus, DRG neuron, based on % inhibition of 30 μM kainate induced current. An excerpt:
(§6) GluR5 receptor antagonists may be identified by radiolabelled ligand binding studies at the cloned and expressed human GluR5 receptor (Korczak et al., 1994, Recept. Channels 3; 41-49), by whole cell voltage clamp electro-physiological recordings of functional activity at the human GluR5 receptor (Korczak et al., 1994, Recept. Channels 3; 41-49) and by whole cell voltage clamp electro-physiological recordings of currents in acutely isolated rat dorsal root ganglion neurons (Bleakman et al., 1996, Mol. Pharmacol. 49; 581-585).
Functional studies were carried out on HEK293 cells stably transfected with human GluR receptors and on acutely isolated dorsal root ganglion neurons (DRG) using patch-clamp technology (Bleakman et al., 1996, Mol. Pharmacol., 49, 581-585). IC50 values (μM) for test Compound A were estimated for GluR1-4 vs 100 μM AMPA and GluR5 and GluR6 vs 100 μM KA with the following results:
*Based on % inhibition of 30 μM kainate induced current.

Assay [11] deals with T2, human GluR1. As to the kind of experiment: Patch-clamp electrophysiology, HEK293 cells stably transfected with human GluR1, vs 100 μM AMPA (Table 2). The class given is cell-based.
From the text: as §3, §5

The target of assay [12] is T1, human GluR5. As to the kind of experiment: Patch-clamp electrophysiology, HEK293 cells stably transfected with human GluR5, vs 100 μM KA (Table 2). The class given is cell-based. Details: expressed in transfected cells; host or cells: HEK293.
From the text: as §6, §5
Target sequence in this assay (P39086 31-905 isoform P39086-2 limits assumed): as above

Assay [13] deals with T5, human GluR3 (Homo sapiens, UniProt P42263).
T5 construct: expressed in transfected cells; host or cells: HEK293
As to the kind of experiment: Binding: displacement of 3H AMPA on GluR3-expressing cells (Table 1).
From the text: as §3, §4

Assay [14] concerns the target T6, human GluR2 (Homo sapiens, UniProt P42262).
T6 construct: expressed in transfected cells; host or cells: HEK293
Description: Binding: displacement of 3H AMPA on GluR2-expressing cells (Table 1).
From the text: as §2

Assay [15] deals with T5, human GluR3. Description: Patch-clamp electrophysiology, HEK293 cells stably transfected with human GluR3, vs 100 μM AMPA (Table 2). The assay is classed as cell-based.
From the text: as §3, §5

Assay [16] addresses T4, human GluR6. Description: Binding: displacement of radioligand (3H kainate) on GluR6 (Table 1). To be noted: read-out: % displ, GluR6.
From the text: as §3, §4

The target of assay [17] is T6, human GluR2. Description: Patch-clamp electrophysiology, HEK293 cells stably transfected with human GluR2, vs 100 μM AMPA (Table 2). The class given is cell-based.
From the text: as §3, §5

Molecules are shown by their SMILES. Where only a bound is given, the exact number is not on record here.

T4 sequence (Q13002 32-908): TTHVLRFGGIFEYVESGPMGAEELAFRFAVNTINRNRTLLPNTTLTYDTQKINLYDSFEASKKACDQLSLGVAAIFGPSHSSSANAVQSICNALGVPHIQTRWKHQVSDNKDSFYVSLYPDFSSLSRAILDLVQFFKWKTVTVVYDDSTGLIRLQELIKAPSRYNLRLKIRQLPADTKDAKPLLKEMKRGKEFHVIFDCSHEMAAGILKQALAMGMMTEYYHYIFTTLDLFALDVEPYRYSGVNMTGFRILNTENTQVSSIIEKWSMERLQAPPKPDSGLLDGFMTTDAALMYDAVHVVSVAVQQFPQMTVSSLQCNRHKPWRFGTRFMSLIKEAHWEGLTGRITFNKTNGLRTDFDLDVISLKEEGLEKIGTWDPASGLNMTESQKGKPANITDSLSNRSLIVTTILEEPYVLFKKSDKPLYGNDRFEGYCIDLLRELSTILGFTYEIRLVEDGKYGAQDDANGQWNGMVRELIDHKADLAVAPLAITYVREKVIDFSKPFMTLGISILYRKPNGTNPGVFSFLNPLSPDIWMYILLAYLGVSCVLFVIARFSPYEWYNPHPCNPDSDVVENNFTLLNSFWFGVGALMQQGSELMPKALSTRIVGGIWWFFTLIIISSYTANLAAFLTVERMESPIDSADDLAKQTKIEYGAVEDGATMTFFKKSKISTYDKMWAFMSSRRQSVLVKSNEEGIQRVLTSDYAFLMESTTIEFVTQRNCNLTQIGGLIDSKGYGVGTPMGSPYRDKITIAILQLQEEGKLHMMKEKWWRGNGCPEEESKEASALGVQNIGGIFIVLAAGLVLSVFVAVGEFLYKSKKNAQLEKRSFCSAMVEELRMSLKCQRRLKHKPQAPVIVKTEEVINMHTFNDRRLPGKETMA
T3 sequence (P48058 21-902): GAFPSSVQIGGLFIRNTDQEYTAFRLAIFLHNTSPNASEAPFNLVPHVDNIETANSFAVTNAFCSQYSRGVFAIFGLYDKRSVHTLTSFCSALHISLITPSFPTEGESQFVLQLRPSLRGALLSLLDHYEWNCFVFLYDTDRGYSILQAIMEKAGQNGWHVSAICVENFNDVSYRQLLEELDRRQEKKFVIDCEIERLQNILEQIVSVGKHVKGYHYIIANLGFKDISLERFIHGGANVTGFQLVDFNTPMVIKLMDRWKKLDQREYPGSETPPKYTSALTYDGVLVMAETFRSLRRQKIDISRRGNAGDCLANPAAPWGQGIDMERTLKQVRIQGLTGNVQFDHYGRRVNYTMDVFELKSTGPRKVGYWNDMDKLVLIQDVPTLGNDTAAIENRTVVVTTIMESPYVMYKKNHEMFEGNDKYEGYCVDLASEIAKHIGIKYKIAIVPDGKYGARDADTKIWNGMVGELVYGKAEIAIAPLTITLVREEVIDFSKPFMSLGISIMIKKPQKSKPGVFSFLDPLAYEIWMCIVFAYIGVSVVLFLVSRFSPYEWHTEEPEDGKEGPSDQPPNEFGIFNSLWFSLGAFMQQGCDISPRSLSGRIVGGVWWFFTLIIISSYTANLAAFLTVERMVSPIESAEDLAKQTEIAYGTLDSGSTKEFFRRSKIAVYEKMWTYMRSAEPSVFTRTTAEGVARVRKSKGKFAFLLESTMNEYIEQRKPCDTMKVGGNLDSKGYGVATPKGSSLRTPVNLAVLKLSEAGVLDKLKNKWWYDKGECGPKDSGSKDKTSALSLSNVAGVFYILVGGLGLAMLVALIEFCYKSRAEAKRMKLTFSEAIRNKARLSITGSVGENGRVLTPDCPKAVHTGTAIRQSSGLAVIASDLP
T2 sequence (P42261 19-906): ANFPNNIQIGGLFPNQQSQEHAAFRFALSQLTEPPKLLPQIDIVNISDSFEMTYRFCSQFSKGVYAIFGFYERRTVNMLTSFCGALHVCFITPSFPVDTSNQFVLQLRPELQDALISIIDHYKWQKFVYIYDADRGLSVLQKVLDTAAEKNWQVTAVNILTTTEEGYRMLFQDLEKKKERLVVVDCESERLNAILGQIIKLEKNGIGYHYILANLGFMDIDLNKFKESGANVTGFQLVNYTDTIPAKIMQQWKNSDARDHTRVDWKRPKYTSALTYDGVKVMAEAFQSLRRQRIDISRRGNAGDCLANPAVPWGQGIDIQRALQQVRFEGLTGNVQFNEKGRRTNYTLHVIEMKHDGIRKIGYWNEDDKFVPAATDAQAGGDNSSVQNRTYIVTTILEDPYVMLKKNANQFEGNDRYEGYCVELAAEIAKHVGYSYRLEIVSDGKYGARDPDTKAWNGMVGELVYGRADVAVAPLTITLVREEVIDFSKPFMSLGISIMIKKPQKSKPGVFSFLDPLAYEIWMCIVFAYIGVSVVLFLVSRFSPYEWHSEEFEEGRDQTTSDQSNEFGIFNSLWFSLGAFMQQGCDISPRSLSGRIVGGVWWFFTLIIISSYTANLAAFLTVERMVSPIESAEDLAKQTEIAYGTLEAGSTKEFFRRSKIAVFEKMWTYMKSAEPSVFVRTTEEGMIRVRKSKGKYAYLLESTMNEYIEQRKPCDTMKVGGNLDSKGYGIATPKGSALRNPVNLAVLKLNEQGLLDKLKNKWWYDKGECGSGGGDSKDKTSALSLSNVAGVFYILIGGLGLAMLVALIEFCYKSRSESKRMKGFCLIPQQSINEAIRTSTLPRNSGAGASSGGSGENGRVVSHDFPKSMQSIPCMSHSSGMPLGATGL

`O=C(O)[C@@H]1C[C@H]2C[C@@H](COCc3nn[nH]n3)CC[C@H]2CN1` [B, 3S,4aR,6S,8aR-6-((((1H-Tetrazole-5-yl)methyl)oxy)methyl)-1,2,3,4,4a,5,6,7,8,8a-decahydroisoquinoline-3-carboxylic Acid]: the “effectiveness in animal models of pain” value in the assay with pain is “effective in animal models of pain”. The “response time (tail flick)” value in the assay with tail flick response [1] and in the assay with tail flick response [3] was “dose dependent increase in response time” each time. In addition, the “selective GluR5 receptor antagonism” value at human GluR5 [2] was “selective GluR5 receptor antagonists”; on human GluR5 [2] (listed as (3S,4aR,6S,8aR)-6-[(1(2)H-tetrazol-5-yl)methoxymethyl]decahydroisoquinoline-3-ca), “selective GluR5 antagonist”; at human GluR5 [2] (listed as Example 1), “selective GluR5 antagonist”. In assay [4], the writhing entry was “dose dependent reduction in writhing”. Moreover, on human GluR5 [5], the “Estimated activity (Ki), GluR5” value was 5.823 µM.
As for `O=C(O)c1ccc(C[C@H]2CC[C@H]3CN[C@H](C(=O)O)C[C@H]3C2)cc1` (relative stereo) [C, 3SR, 4aRS, 6SR, 8aRS-6-(((4-carboxy)phenyl)methyl)-1,2,3-4,4a,5,6,7,8,8a-decahydroisoquinoline-3-carboxylic acid], the inhibition at 1000 µM came to 21% at human GluR1 [6] (at 1 mM, 3H AMPA) and 23% on human GluR4 [7] (at 1 mM, 3H AMPA).
Broadly, the IC50 is the point on the concentration scale where inhibition reaches its midpoint. A higher IC50 goes with lower potency. With `O=C(O)c1ccc(C[C@H]2CC[C@H]3CN[C@H](C(=O)O)C[C@H]3C2)cc1` [D, 3S,4aR,6S,8aR-6-(((4-carboxy)phenyl)methyl)-1,2,3,4,4a,5,6,7,8,8a-decahydroisoquinoline-3-carboxylic acid], the half-inhibitory concentration (IC50) is more than 100 µM against human GluR4 [8], more than 100 µM against human GluR6 [9] and 0.98 µM in [10].
As to `O=C(O)[C@@H]1C[C@H]2C[C@@H](COCc3nn[nH]n3)CC[C@H]2CN1` (relative stereo) [Compound A, 3SR, 4aRS, 6SR, 8aRS-6-[(1(2)H-tetrazol-5-yl)methoxy-methyl]decahydroisoquinoline-3-carboxylic acid], the IC50 is more than 100 µM on human GluR1 [11]; more than 100 µM against human GluR4 [8]; 3.9 ± 0.5 µM at human GluR5 [12]; more than 100 µM against human GluR6 [9]; 0.6 µM in assay [10]; more than 100 µM against human GluR3 [15]. Moreover, the IC50 against human GluR2 [17] was more than 100 µM. Further, the “Estimated activity (Ki), GluR1” value at human GluR1 [6] (displacement of 3H AMPA) was 150.686 µM. On human GluR3 [13], the “Estimated activity (Ki), GluR3” value is 47.793 µM. The “Estimated activity (Ki), GluR2” value at human GluR2 [14] was 35.337 µM. Further, the “selective GluR5 receptor antagonism” value on human GluR5 [2] is “selective GluR5 receptor antagonists”. Besides, the “Estimated activity (Ki), GluR4” value on human GluR4 [7] (displacement of 3H AMPA) was 31.606 µM. Moreover, the “Estimated activity (Ki), GluR5” value on human GluR5 [5] was 3.061 µM. Also, the inhibition at 100 µM on human GluR6 [16] amounted to 6%.

The record behind these values is patent US6242462A, “Pharmacological agents” (Eli Lilly and Company, priority 2000, dated 2001).
